Test results taken from US20230248723A1, “PYRROLO[2,3-B]PYRAZINE COMPOUNDS AS CCCDNA INHIBITORS FOR THE TREATMENT OF HEPATITIS B VIRUS (HBV) INFECTION” (Hoffmann-La Roche Inc., priority 2017, published 2023).
Where two headings read alike, the source gives them in different places.

How the values were obtained:
[1] = system: liver-enriched genes; assay: HLC maturation screening (microfluidic RT-qPCR of liver-enriched genes); format: cell-based, human; conditions: 96 liver-enriched genes
Procedure: FIG. 6: Effect of MB-1 on the expression of 96 liver-enriched genes in HLC. HLC seeded on collagen I-coated 6-well plates were treated with MB-1 (1, 5, or 10 μM) in 1% DMSO, or 1% DMSO (each in triplicate) for 4 days. Cells were harvested and expression of 96 liver-enriched genes was analyzed by microfluidic RT-qPCR (Fluidigm).
HLC are seeded on collagen 1-coated 96-well plates in 100 μl medium D containing Matrigel 0.25 mg/ml. The next day (day 1), compound library was added to cells at a final concentration 4 μM in 1% DMSO. Fresh medium and compound was replenished 2 days later (day 3). At day 4, cells were harvested using Cells-to-Ct lysis kit (Ambion/Thermo Fisher), total RNAs were reverse-transcribed, and the resulting cDNA products were loaded into the microfluidic 96.96 Dynamic Array™ IFC and assayed against 32 liver-enriched genes on Biomark HD system (Fluidigm). The relative gene expression was calculated from delta Ct values using house-keeping gene (PPIA) in DMSO control as reference; delta Ct values were then converted to fold-change values. Compounds that increased liver-enriched gene expression in HLC ≥3-fold compared to DMSO control were further tested in dose-response (1, 5, 10, and 50 μM). The secondary screen was performed as above using 96-liver enriched genes. The top candidate (MB-1) was used for all experiments utilizing HLC. […]

[2] = system: albumin (secreted, cellular toxicity marker); assay: Albumin (in vitro cellular tox marker), multiplex assay, PHH; format: cell-based; conditions: human
Procedure: Fresh primary human hepatocytes (PXB-PHH) harvested from humanized mice (uPA/SCID mice)—herein called PHH—were obtained from PhoenixBio Co., Ltd (Japan). Cells were seeded on a collagen I-coated plate at the following cell density: 35,000 cells/well (384-well), 70,000 cells/well (96-well), or, 400,000 cells/well (24-well) in modified hepatocyte clonal growth medium (dHCGM). dHCGM is a DMEM medium containing 100 U/ml Penicillin, 100 μg/ml Streptomycin, 20 mM Hopes, 44 mM NaHCO3, 15 μg/ml L-proline, 0.25 μg/ml insulin, 50 nM Dexamethazone, 5 ng/ml EGF, 0.1 mM Asc-2P, 2% DMSO and 10% FBS (Ishida et al., 2015). Cells were cultured at 37° C. incubator in a humidified atmosphere with 5% CO2. Culture medium was replaced 24 h post-plating and every 2 days until harvest.
Following 4 day of maturation with 1 μM MB-1, HLC were incubated with HBV (purified from CHB individuals) at multiplicity of infection (MOI) 10-40 without PEG for 24 hr; virus inoculum was removed the following day. […] Compound treatment in HLC and PHH was started at day 3 post infection. Compound (in powder) was dissolved in DMSO; the final concentration of DMSO added to cells is 1%. Fresh compound was replenished every 2 day until cells were harvested at day 10 (PHH), or day 14 (HLC). Compound effect on HBV and cellular toxicity was measured by multiplex assay (HBsAg, HBeAg, albumin), branched DNA (pgRNA), or digital PCR (cccDNA) and depicted as % of inhibition compared to DMSO control. Graphs were prepared using Spotfire software.
A custom, Luminex-based multiplex assay that simultaneously measured HBeAg, albumin, and HBsAg was developed by Radix BioSolutions (Georgetown, Tex.). This is a sandwich immunoassay; each capture antibody was coupled with xMAP™ Luminex magnetic beads. The dynamic ranges of analyte detection are as follows: HBeAg (1-316 ng/ml), albumin (3.1-10,000 ng/ml), and HBsAg (0.1-100 ng/ml) with coefficient variant (CV) […]. Samples were read on FlexMAP 3D (Luminex) and analyzed by Genedata software.

SMILES	concentration at which mRNA expression of liver-enriched genes is enhanced [1] [µM]	IC50 at 7 days ([2]; HepG2.2.15-derived HBV GT D, MOI 40, read-out: In vitro tox albumin IC50 (μM) Median) [µM]	IC50 at 7 days ([2]; HepG2.2.15-derived HBV GT D, MOI 125, read-out: In vitro tox albumin IC50 (μM) Median) [µM]	IC50 at 7 days ([2]; primary human hepatocytes (PXB-PHH) infected with HBV, patient-derived HBV (GT D), read-out: In vitro tox albumin IC50 (μM) Median) [µM]	IC50 at 7 days ([2]; primary human hepatocytes (PXB-PHH) infected with HBV, patient-derived HBV GT A, MOI 40, day 10 pi, read-out: In vitro tox albumin IC50 (μM) Median) [µM]	IC50 at 7 days ([2]; primary human hepatocytes (PXB-PHH) infected with HBV, patient-derived HBV GT B, MOI 40, day 10 pi, read-out: In vitro tox albumin IC50 (μM) Median) [µM]	IC50 at 7 days ([2]; primary human hepatocytes (PXB-PHH) infected with HBV, patient-derived HBV GT C, MOI 40, day 10 pi, read-out: In vitro tox albumin IC50 (μM) Median) [µM]	IC50 at 7 days ([2]; primary human hepatocytes (PXB-PHH) infected with HBV, patient-derived HBV GT D, MOI 40 (Table 6), read-out: In vitro tox albumin IC50 (μM) Median) [µM]	IC50 at 7 days ([2]; primary human hepatocytes (PXB-PHH) infected with HBV, patient-derived HBV GT D, MOI 40, day 10 pi (Table 5), read-out: In vitro tox albumin IC50 (μM) Median) [µM]	IC50 at 7 days ([2]; primary human hepatocytes (PXB-PHH) infected with HBV, patient-derived HBV GT D, MOI 125, read-out: In vitro tox albumin IC50 (μM) Median) [µM]
O=C(NCc1cccc(F)c1)c1cccc2[nH]c(-c3c(NC[C@@H](O)c4ccccc4)cc[nH]c3=O)nc12 [MB-1]	55	–	–	–	–	–	–	–	–	–
O=C(NC(CO)CO)c1c[nH]c2ncc(C3CC3)nc12 [compound 7]	–	21.1	20.2	20.9	20.3	19.2	23.2	23.7	23.7	20.5
